Laboratory results as given in the OligoGym collection.
After the bases stand the sugars from the 5' end (letter, count) and the backbone: PS all phosphorothioate, else s phosphorothioate and o phosphodiester by linkage. Methylation of C is not given here. e = 2'-O-(2-methoxyethyl) (MOE); k = constrained ethyl (cEt); d = 2'-deoxy (DNA); m = 2'-O-methyl

Target: HSD17B13
Conditions: ASO, HepaRG

Sequence | target mRNA inhibition (1 µM) [%] | other results
GAATAGGAGAGTCTTT (sugars k3 d10 k3, PS) | 58 | –
GAATCATGATTGAATT (sugars k3 d10 k3, PS) | 39 | –
GAATCATTAAGCTTAG (sugars k3 d10 k3, PS) | 63 | –
GAATGCTACTTGAACA (sugars k3 d10 k3, PS) | 44 | –
GAATGCTACTTGAACA (sugars kkdddddddddkekek, PS) | 48 | –
GAATTATTTCTTGCGA (sugars k3 d10 k3, PS) | 61 | –
GACACTAATTTAGTCA (sugars k3 d10 k3, PS) | 11 | –
GACAUGAGGTTTTGAT (sugars k3 d1 m1 d8 k3, PS) | 34 | –
GACCATGCTGCTACTC (sugars k3 d10 k3, PS) | 74 | –
GACTATAAAAAGGGAG (sugars k3 d10 k3, PS) | 40 | –
GACTGCTGCTAGTGCC (sugars k3 d9 k3 e1, PS) | 49 | –
GACTTCTTACGACTTC (sugars k3 d10 k3, PS) | 38 | –
GAGAAATCTAAGAACC (sugars k3 d10 k3, PS) | 42 | –
GAGACATGAGGTTTTG (sugars kkdddddddddkekek, PS) | 49 | –
GAGATAAAGCTGCCTG (sugars k3 d10 k3, PS) | 67 | –
GAGATTACCCCTGGCT (sugars k3 d10 k3, PS) | 72 | –
GAGCGATAGATCTCTT (sugars k3 d10 k3, PS) | 0 | –
GAGTAAACGACTCTGT (sugars k3 d10 k3, PS) | 43 | –
GAGTAATCAGTTTTCC (sugars k3 d10 k3, PS) | 65 | –
GAGTAGATGATGGTGA (sugars k3 d10 k3, PS) | 28 | –
GAGTAGTGGAGCCAGA (sugars k3 d10 k3, PS) | 44 | –
GAGTCATAATTTGCTT (sugars k3 d10 k3, PS) | 57 | –
GAGTCGGTCACCTTTC (sugars k3 d1 m1 d8 k3, PS) | 55 | –
GAGTGCATCTTAAGAT (sugars k3 d1 m1 d8 k3, PS) | 7 | –
GAGTTATCTGGTTTGC (sugars k3 d10 k3, PS) | 84 | target mRNA inhibition (0.02 µM): 0%; target mRNA inhibition (0.078 µM): 0%; target mRNA inhibition (0.313 µM): 27%; target mRNA inhibition (1.25 µM): 68%; target mRNA inhibition (5 µM): 91%

Sequence | target mRNA inhibition (1 µM) [%] | other results
GAGTTATTCTCTTGAC (sugars k3 d10 k3, PS) | 57 | –
GAGTTCTACACCACAC (sugars k3 d10 k3, PS) | 76 | target mRNA inhibition (0.02 µM): 0%; target mRNA inhibition (0.078 µM): 19%; target mRNA inhibition (0.313 µM): 32%; target mRNA inhibition (1.25 µM): 65%; target mRNA inhibition (5 µM): 87%
GAGTUGCACCGTTTTG (sugars k3 d1 m1 d8 k3, PS) | 63 | –
GATAATATGTGACTTG (sugars k3 d10 k3, PS) | 68 | –
GATAATTTGGTGTCAT (sugars k3 d10 k3, PS) | 59 | –
GATAGTGAACATACAT (sugars k3 d10 k3, PS) | 54 | –
GATATTCTGTGGCATG (sugars kkdddddddddkekek, PS) | 52 | –
GATCATTGCAGAAAGA (sugars k3 d10 k3, PS) | 23 | –
GATCTCTTAGCTGTGC (sugars k3 d10 k3, PS) | 64 | –
GATCTCTTAGCTGTGC (sugars kkdddddddddkekek, PS) | 45 | –
GATCTGAGTTACATTA (sugars k3 d10 k3, PS) | 69 | –
GATGAGTAGGCAACTG (sugars k3 d10 k3, PS) | 42 | –
GATGCTCCATAATAAT (sugars k3 d1 m1 d8 k3, PS) | 24 | –
GATGCTCCATAATAAT (sugars k3 d10 k3, PS) | 42 | –
GATGGTGATCAGAAGC (sugars k3 d10 k3, PS) | 52 | –
GATGTAGTGGGAGTCG (sugars kkdddddddddkekek, PS) | 38 | –
GATTAAGCAGAATTGT (sugars kkdddddddddkekek, PS) | 31 | –
GATTACAGCATCAAGA (sugars k3 d10 k3, PS) | 52 | –
GATTAGTCTTGATGTA (sugars k3 d9 k3 e1, PS) | 48 | –
GATTAGTCTTGATGTA (sugars kkdddddddddkekek, PS) | 56 | –
GATTGTTACATCACCC (sugars k3 d10 k3, PS) | 65 | target mRNA inhibition (0.02 µM): 15%; target mRNA inhibition (0.078 µM): 32%; target mRNA inhibition (0.313 µM): 33%; target mRNA inhibition (1.25 µM): 74%; target mRNA inhibition (5 µM): 91%
GATTTAGAGAGCGATA (sugars k3 d10 k3, PS) | 44 | –
GCAATGAGATTACCCC (sugars k3 d10 k3, PS) | 83 | target mRNA inhibition (0.02 µM): 3%; target mRNA inhibition (0.078 µM): 26%; target mRNA inhibition (0.313 µM): 58%; target mRNA inhibition (1.25 µM): 83%; target mRNA inhibition (5 µM): 89%
GCAATTTACTTTCAGC (sugars k3 d10 k3, PS) | 66 | –
GCACCAACTATGTAAT (sugars k3 d10 k3, PS) | 53 | –

Sequence | target mRNA inhibition (1 µM) [%] | other results
GCAGAAATTCACCTTG (sugars kkdddddddddkekek, PS) | 53 | –
GCAGCATTGATTCGAA (sugars k3 d10 k3, PS) | 63 | –
GCATAAGAGCCAAACT (sugars k3 d10 k3, PS) | 67 | –
GCATCAAGACATTCTA (sugars k3 d10 k3, PS) | 72 | –
GCATCTTAAGATACCC (sugars k3 d1 m1 d8 k3, PS) | 65 | –
GCATCTTAAGATACCC (sugars k3 d9 k3 e1, PS) | 84 | target mRNA inhibition (0.02 µM): 28%; target mRNA inhibition (0.078 µM): 34%; target mRNA inhibition (0.313 µM): 58%; target mRNA inhibition (1.25 µM): 81%; target mRNA inhibition (5 µM): 83%
GCATGCGCAGTGACGC (sugars k3 d10 k3, PS) | 36 | –
GCATTAATGCCACCCT (sugars kkdddddddddkekek, PS) | 24 | –
GCATTAGATGGTAAGG (sugars k3 d10 k3, PS) | 64 | –
GCCACAGATTTTCTCC (sugars k3 d10 k3, PS) | 49 | –
GCCAGATTGCACAAAC (sugars k3 d10 k3, PS) | 60 | –
GCCCATCCCCTAAGTT (sugars k3 d10 k3, PS) | 33 | –
GCCCTTAAGTCATTTT (sugars k3 d10 k3, PS) | 25 | –
GCCGCACACTGAAGCC (sugars k3 d10 k3, PS) | 25 | –
GCCTAGTTACAAACCA (sugars k3 d10 k3, PS) | 56 | –
GCCTAGTTGCAATGAG (sugars k3 d10 k3, PS) | 61 | –
GCCTGCTGAAACTTGA (sugars k3 d10 k3, PS) | 18 | –
GCGCTTATTAATATCC (sugars k3 d10 k3, PS) | 3 | –
GCTAAGTAGTAATTCT (sugars k3 d10 k3, PS) | 57 | –
GCTACTTGAACAGTCT (sugars k3 d1 m1 d8 k3, PS) | 82 | –
GCTACTTGAACAGTCT (sugars k3 d9 k3 e1, PS) | 60 | –
GCTATAGTAATTGCTA (sugars k3 d10 k3, PS) | 33 | –
GCTCCATAATAATAGC (sugars k3 d9 k3 e1, PS) | 8 | –
GCTCCATAATAATAGC (sugars k3 d10 k3, PS) | 21 | –
GCTGAGAGTTATCTGG (sugars k3 d10 k3, PS) | 65 | –

Sequence | target mRNA inhibition (1 µM) [%] | other results
GCTGCATTAATGCCAC (sugars k3 d10 k3, PS) | 46 | –
GCTGCCTGCTGAAACT (sugars k3 d10 k3, PS) | 38 | –
GCTGCTAGTGCCAAAC (sugars kkdddddddddkekek, PS) | 62 | –
GCTGGATATACTGTCC (sugars k3 d10 k3, PS) | 36 | –
GCTGGTAAAGGTAAGG (sugars k3 d10 k3, PS) | 65 | –
GCTTAATTTTCGGGTT (sugars k3 d10 k3, PS) | 36 | –
GCTTACGACAGGTCAT (sugars k3 d10 k3, PS) | 73 | –
GCTTAGTTCATTGTGA (sugars k3 d10 k3, PS) | 45 | –
GCTTTAATTTTTGAGC (sugars k3 d10 k3, PS) | 26 | –
GCTTTGCAGCATTGAT (sugars k3 d10 k3, PS) | 61 | –
GCTTTTGTCCACCTTT (sugars k3 d9 k3 e1, PS) | 81 | target mRNA inhibition (0.02 µM): 0%; target mRNA inhibition (0.078 µM): 17%; target mRNA inhibition (0.313 µM): 37%; target mRNA inhibition (1.25 µM): 69%; target mRNA inhibition (5 µM): 83%
GCTTTTGTGATCCAAA (sugars k3 d10 k3, PS) | 43 | –
GGAAATTGTTGCTGTT (sugars k3 d10 k3, PS) | 46 | –
GGAACAATATGGGATG (sugars k3 d10 k3, PS) | 36 | –
GGAATGCTACTTGAAC (sugars k3 d9 k3 e1, PS) | 68 | –
GGAAUGCTACTTGAAC (sugars k3 d1 m1 d8 k3, PS) | 62 | –
GGAGATATAACATTAC (sugars k3 d10 k3, PS) | 70 | target mRNA inhibition (0.02 µM): 10%; target mRNA inhibition (0.078 µM): 10%; target mRNA inhibition (0.313 µM): 42%; target mRNA inhibition (1.25 µM): 68%; target mRNA inhibition (5 µM): 88%
GGAGTGCATCTTAAGA (sugars k3 d9 k3 e1, PS) | 40 | –
GGAGTGCATCTTAAGA (sugars kkdddddddddkekek, PS) | 34 | –
GGAGUGCATCTTAAGA (sugars k3 d1 m1 d8 k3, PS) | 32 | –
GGATAGTGAACATACA (sugars k3 d10 k3, PS) | 62 | –
GGATATACTGTCCCAG (sugars k3 d10 k3, PS) | 9 | –
GGATCTAGAACACTTG (sugars k3 d10 k3, PS) | 32 | –
